From ChEMBL document CHEMBL1145649, “Novel HCV NS5B polymerase inhibitors derived from 4-(1',1'-dioxo-1',4'-dihydro-1'lambda6-benzo[1',2',4']thiadiazin-3'-yl)-5-hydroxy-2H-pyridazin-3-ones: Part 4. Optimization of DMPK properties” (Bioorg Med Chem Lett, 2008)

Columns and labels:
[1] = Fraction absorbed in cynomolgus monkey at 1 mg/kg, po; type: ADME, organism-based, Macaca fascicularis; parameters: dose 1 mg/kg, route oral; details: in vivo, read-out: Fabs
[2] = Oral bioavailability in cynomolgus monkey at 1 mg/kg; type: ADME, organism-based, Macaca fascicularis; details: in vivo
physchem = details: buffer, pH 7.4
in vitro = details: human, Caco-2
Cynomolgus monkey [3] = assay: AUC (0 to infinity) in cynomolgus monkey at 1 mg/kg, po; type: ADME, organism-based, Macaca fascicularis, Plasma; parameters: time infinity, dose 1 mg/kg, route oral; details: in vivo
Cynomolgus monkey [4] = assay: AUC (0 to infinity) in cynomolgus monkey at 1 mg/kg, iv; type: ADME, organism-based, Macaca fascicularis, Plasma; parameters: time infinity, dose 1 mg/kg, route intravenous; details: in vivo
[5] = Tmax in cynomolgus monkey at 1 mg/kg, po; type: ADME, organism-based, Macaca fascicularis; parameters: dose 1 mg/kg, route oral; details: in vivo
[6] = Volume of distribution at steady state in cynomolgus monkey at 1 mg/kg, iv; type: ADME, organism-based, Macaca fascicularis; parameters: dose 1 mg/kg, route intravenous; details: in vivo, read-out: Vdss
[7] = Cmax in cynomolgus monkey at 1 mg/kg, po; type: ADME, organism-based, Macaca fascicularis; parameters: dose 1 mg/kg, route oral; details: in vivo

Structure (SMILES)	Fa [1] [%]	bioavailability [2] [%]	solubility (physchem) [µM]	Papp A→B at 10 µM (in vitro) [×10⁻⁶ cm/s]	AUC (Cynomolgus monkey [3]) [ng·h/mL]	AUC (Cynomolgus monkey [4]) [ng·h/mL]	Tmax [5] [h]	Vd [6] [L/kg]	Cmax [7] [ng/mL]
CN(c1ccc2c(c1)S(=O)(=O)N=C(c1c(O)c(-c3cccs3)nn(CCC(C)(C)C)c1=O)N2)S(C)(=O)=O	5	3	> 100	0.01	–	–	–	–	–
CC(C)CCn1nc(CC2CC2)c(O)c(C2=NS(=O)(=O)c3cc(NS(C)(=O)=O)ccc3N2)c1=O	9	7	> 100	0.49	–	–	–	–	–
CC(C)CCn1nc(CC2CCCC2)c(O)c(C2=NS(=O)(=O)c3cc(NS(C)(=O)=O)ccc3N2)c1=O	18	15	–	–	370	2540	1.3	0.15	113
CC(C)CCn1nc(CC(C)(C)C)c(O)c(C2=NS(=O)(=O)c3cc(NS(C)(=O)=O)ccc3N2)c1=O	8	6	> 100	0.29	–	–	–	–	–
CS(=O)(=O)Nc1ccc2c(c1)S(=O)(=O)N=C(c1c(O)c(C3=CCCC3)nn(CCC3CC3)c1=O)N2	6	4	> 100	0.59	–	–	–	–	–
CC(C)CCn1nc(-c2cccs2)c(O)c(C2=NS(=O)(=O)c3cc(N(C)S(C)(=O)=O)ccc3N2)c1=O	33	–	> 100	–	72	605	6	0.57	11
Cc1ccc(-c2nn(Cc3ccccc3)c(=O)c(C3=Nc4ccccc4S(=O)(=O)N3)c2O)s1	36	–	> 80	–	3650	10900	2	0.21	673

The remaining lines, values ahead:

Fa [1] [%]	bioavailability [2] [%]	solubility (physchem) [µM]	Papp A→B at 10 µM (in vitro) [×10⁻⁶ cm/s]	AUC (Cynomolgus monkey [3]) [ng·h/mL]	AUC (Cynomolgus monkey [4]) [ng·h/mL]	Tmax [5] [h]	Vd [6] [L/kg]	Cmax [7] [ng/mL]	Structure (SMILES)
7	4	–	–	–	–	–	–	–	CC(C)(C)CCn1nc(C2=CCCC2)c(O)c(C2=NS(=O)(=O)c3cc(NS(C)(=O)=O)ccc3N2)c1=O
18	10	> 100	–	89	851	6	0.57	13	CC(C)(C)CCn1nc(CC2CCCC2)c(O)c(C2=Nc3ccc(NS(C)(=O)=O)cc3S(=O)(=O)N2)c1=O
17	15	> 100	0.58	611	3980	1.5	0.17	294	CC(C)CCn1nc(C(C)(C)C)c(O)c(C2=NS(=O)(=O)c3cc(NS(C)(=O)=O)ccc3N2)c1=O
2	2	> 100	1	–	–	–	–	–	CC(C)=Cc1nn(CCC(C)(C)C)c(=O)c(C2=NS(=O)(=O)c3cc(NS(C)(=O)=O)ccc3N2)c1O
4	4	> 100	0.15	–	–	–	–	–	CC(C)(C)CCn1nc(CC(C)(C)C)c(O)c(C2=NS(=O)(=O)c3cc(NS(C)(=O)=O)ccc3N2)c1=O
5	4	> 50	0.95	–	–	–	–	–	CC(C)(C)CCn1nc(C2CC2)c(O)c(C2=Nc3ccc(NS(C)(=O)=O)cc3S(=O)(=O)N2)c1=O
4	–	> 100	–	30	1330	6.3	0.18	3.8	CC(C)CCn1nc(-c2cccs2)c(O)c(C2=Nc3ccc(NS(C)(=O)=O)cc3S(=O)(=O)N2)c1=O
7	6	> 100	0.7	–	–	–	–	–	CC(C)(C)Cc1nn(CCC2CC2)c(=O)c(C2=Nc3ccc(NS(C)(=O)=O)cc3S(=O)(=O)N2)c1O
